Article PMC5731698, “Identification and characterization of the three members of the CLC family of anion transport proteins in Trypanosoma brucei” (PLoS ONE, 2017)

Tests used:
TbVCL3 = target: T1, TbVCL3 (Trypanosoma brucei, UniProt Q381B7); assay: two-electrode voltage clamp, Xenopus oocytes; format: cell-based
T1 construct: gene Tb11.01.8420; full-length, untagged cRNA in Xenopus laevis oocytes; dimer expected (CLC family), heterodimer with endogenous Xenopus CLC not excluded
T1 sequence (Q381B7 1-918): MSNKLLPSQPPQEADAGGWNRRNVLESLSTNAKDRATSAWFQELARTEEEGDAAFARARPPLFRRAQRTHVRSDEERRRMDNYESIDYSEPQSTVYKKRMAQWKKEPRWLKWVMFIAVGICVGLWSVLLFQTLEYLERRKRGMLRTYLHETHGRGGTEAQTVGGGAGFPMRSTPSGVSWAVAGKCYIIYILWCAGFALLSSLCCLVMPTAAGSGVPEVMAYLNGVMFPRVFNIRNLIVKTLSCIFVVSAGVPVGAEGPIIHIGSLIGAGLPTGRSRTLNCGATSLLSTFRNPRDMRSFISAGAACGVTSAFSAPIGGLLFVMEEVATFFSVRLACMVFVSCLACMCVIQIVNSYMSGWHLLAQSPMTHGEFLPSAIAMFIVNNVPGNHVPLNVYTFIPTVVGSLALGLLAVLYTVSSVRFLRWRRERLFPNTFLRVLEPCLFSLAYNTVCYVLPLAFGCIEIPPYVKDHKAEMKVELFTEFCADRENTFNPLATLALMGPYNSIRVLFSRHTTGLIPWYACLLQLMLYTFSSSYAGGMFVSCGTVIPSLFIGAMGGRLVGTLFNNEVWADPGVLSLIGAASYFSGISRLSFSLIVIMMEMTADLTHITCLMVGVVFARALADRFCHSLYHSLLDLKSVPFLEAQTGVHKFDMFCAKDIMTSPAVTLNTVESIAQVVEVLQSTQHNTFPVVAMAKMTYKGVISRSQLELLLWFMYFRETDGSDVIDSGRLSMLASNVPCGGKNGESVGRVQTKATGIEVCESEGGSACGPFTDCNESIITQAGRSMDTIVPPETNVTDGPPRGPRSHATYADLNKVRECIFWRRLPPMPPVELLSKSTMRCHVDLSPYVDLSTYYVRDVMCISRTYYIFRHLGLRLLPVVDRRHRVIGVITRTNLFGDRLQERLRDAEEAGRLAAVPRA
From the text: two-electrode voltage clamp, Xenopus oocytes on TbVCL3 | TbVCL3-expressing oocytes ...

TbVCL2 = target: T2, TbVCL2 (Trypanosoma brucei, UniProt Q389H3); assay: two-electrode voltage clamp, Xenopus oocytes; format: cell-based
T2 construct: gene Tb10.26.0220; full-length, untagged cRNA in Xenopus laevis oocytes; dimer expected (CLC family), heterodimer with endogenous Xenopus CLC not excluded
T2 sequence (Q389H3 1-941): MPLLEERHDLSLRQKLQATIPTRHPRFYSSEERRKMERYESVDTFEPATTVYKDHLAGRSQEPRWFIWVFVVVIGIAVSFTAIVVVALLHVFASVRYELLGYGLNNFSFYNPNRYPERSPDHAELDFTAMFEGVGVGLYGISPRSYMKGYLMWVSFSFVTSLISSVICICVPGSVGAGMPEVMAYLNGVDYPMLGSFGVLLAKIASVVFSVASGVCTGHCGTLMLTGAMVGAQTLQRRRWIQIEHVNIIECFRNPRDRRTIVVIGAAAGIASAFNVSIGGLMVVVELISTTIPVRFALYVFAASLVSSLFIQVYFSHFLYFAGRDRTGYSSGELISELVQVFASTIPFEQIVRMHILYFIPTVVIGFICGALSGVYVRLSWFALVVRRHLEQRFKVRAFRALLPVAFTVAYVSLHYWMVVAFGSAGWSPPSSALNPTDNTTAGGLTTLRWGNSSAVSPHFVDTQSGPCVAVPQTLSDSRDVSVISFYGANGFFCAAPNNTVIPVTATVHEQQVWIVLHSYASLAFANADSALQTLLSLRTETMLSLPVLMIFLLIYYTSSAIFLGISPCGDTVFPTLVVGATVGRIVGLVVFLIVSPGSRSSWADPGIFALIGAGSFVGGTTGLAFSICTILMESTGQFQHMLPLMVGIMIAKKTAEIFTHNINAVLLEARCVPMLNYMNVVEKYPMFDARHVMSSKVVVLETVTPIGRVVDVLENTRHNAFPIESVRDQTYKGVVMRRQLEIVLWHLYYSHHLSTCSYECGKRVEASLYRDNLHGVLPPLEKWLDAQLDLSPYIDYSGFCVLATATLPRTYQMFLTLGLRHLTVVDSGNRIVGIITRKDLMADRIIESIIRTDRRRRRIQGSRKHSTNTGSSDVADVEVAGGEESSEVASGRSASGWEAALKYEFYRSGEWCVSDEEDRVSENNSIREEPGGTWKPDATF

SMILES: O=S(=O)(O)c1cc(N=C=S)ccc1/C=C/c1ccc(N=C=S)cc1S(=O)(=O)O [DIDS, 4,4-diisothiocyanostilbene-2,2-disulphonate]
- IC50 (TbVCL3): 56 ± 18 µM
- IC50 (TbVCL2): 30 ± 3 µM
